Tests used:
Assay type in all cases: in vivo
[1] = system: Abutilon theophrasti (ABUTH); assay: A. Herbicidal pre-emergence efficacy, ABUTH; conditions: 1280 g/ha; scored visually after about 3 weeks vs untreated controls
Summary of the method: (§1)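 Pre-emergence soil-surface spray in sandy loam pots, WP/EC in water plus 0.5% additive, 600 L/ha. Visual % damage rating after about 3 weeks in greenhouse vs. untreated; 0% = control-like, 100% = dead plants. Rates up to 1280 g/ha.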

[2] = system: Alopecurus myosuroides (ALOMY); assay: A. Herbicidal pre-emergence efficacy, ALOMY; conditions: 1280 g/ha; scored visually after about 3 weeks vs untreated controls
Description: (§2) Seeds of mono- and dicotyledonous weed plants were placed in plastic pots in sandy loam soil (doubly sown with one species each of mono- or dicotyledonous weed plants per pot) and covered with soil. The compounds of the invention, formulated in the form of wettable powders (WP) or as emulsion concentrates (EC), were then applied onto the surface of the covering soil as aqueous suspension or emulsion with addition of 0.5% additive at a water application rate of 600 liters per hectare (converted). After the treatment, the pots were placed in a greenhouse and kept under good growth conditions for the test plants. After about 3 weeks, the efficacy of the preparations was scored visually in comparison with untreated controls as percentages.
(§3) For example, • 100% efficacy=plants have died, • 0% efficacy=like untreated control plants.
(§4) Tables A1a to A12c below show the effects of selected compounds of the general formula (I) according to table 1 on various harmful plants at an application rate corresponding to 1280 g/ha or less, which were obtained by the experimental procedure mentioned above.

[3] = system: Digitaria sanguinalis (DIGSA); assay: A. Herbicidal pre-emergence efficacy, DIGSA; conditions: scored visually after about 3 weeks vs untreated controls
Summary of the method: as §1

[4] = system: Echinochloa crus-galli (ECHCG); assay: A. Herbicidal pre-emergence efficacy, ECHCG; conditions: scored visually after about 3 weeks vs untreated controls
Summary of the method: as §1

Kochia scoparia (KCHSC) [5] = assay: A. Herbicidal pre-emergence efficacy, KCHSC; conditions: pre-emergence
Summary of the method: as §1

Lolium rigidum (LOLRI) = assay: A. Herbicidal pre-emergence efficacy, LOLRI
Summary of the method: as §1

[6] = system: Matricaria inodora (MATIN); assay: A. Herbicidal pre-emergence efficacy, MATIN
Description: as §2, §3, §4

Poa annua (POAAN) [7] = assay: A. Herbicidal pre-emergence efficacy, POAAN
Summary of the method: as §1

Setaria viridis (SETVI) = assay: A. Herbicidal pre-emergence efficacy, SETVI
Summary of the method: as §1

Stellaria media (STEME) [8] = assay: A. Herbicidal pre-emergence efficacy, STEME
Summary of the method: as §1

Veronica persica (VERPE) [9] = assay: A. Herbicidal pre-emergence efficacy, VERPE
Summary of the method: as §1

[10] = system: Amaranthus retroflexus (AMARE); assay: A. Herbicidal pre-emergence efficacy, AMARE
Summary of the method: as §1

[11] = system: Abutilon theophrasti (ABUTH); assay: B. Herbicidal post-emergence efficacy, ABUTH; conditions: rated visually after about 3 weeks
Summary of the method: (§5)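 Weeds grown in sandy loam in greenhouse and sprayed at the one-leaf stage, 2–3 weeks after sowing, with WP or EC formulations plus 0.5% additive at 600 L/ha water. Injury rated visually versus untreated controls after about 3 weeks (100% = dead, 0% = like control); rates up to 1280 g/ha.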

[12] = system: Echinochloa crus-galli (ECHCG); assay: B. Herbicidal post-emergence efficacy, ECHCG; conditions: 1280 g/ha, rated visually after about 3 weeks
Summary of the method: as §5

Kochia scoparia (KCHSC) [13] = assay: B. Herbicidal post-emergence efficacy, KCHSC; conditions: for Post-emergence efficacy against KCHSC: 1280 g/ha; for Post-emergence efficacy against KCHSC in %: rated visually after about 3 weeks
Summary of the method: as §5

Poa annua (POAAN) [14] = assay: B. Herbicidal post-emergence efficacy, POAAN; conditions: 1280 g/ha
Summary of the method: as §5

Stellaria media (STEME) [15] = assay: B. Herbicidal post-emergence efficacy, STEME
Summary of the method: as §5

Veronica persica (VERPE) [16] = assay: B. Herbicidal post-emergence efficacy, VERPE
Summary of the method: as §5

[17] = system: Amaranthus retroflexus (AMARE); assay: B. Herbicidal post-emergence efficacy, AMARE
Summary of the method: as §5

[18] = pre-emergence, dosage 1280 g/ha

Cc1cccc(Oc2ncc(Br)cn2)c1OS(=O)(=O)CCCC(F)(F)F [Example I-35]
Pre-emergence efficacy against ABUTH [1]: 100%
Pre-emergence efficacy against ALOMY [2]: 90%
Pre-emergence efficacy against DIGSA ([3]; 320 g/ha): 90%
Pre-emergence efficacy against DIGSA ([3]; 1280 g/ha): 100%
Pre-emergence efficacy against ECHCG ([4]; 1280 g/ha): 100%
Pre-emergence efficacy against KCHSC (Kochia scoparia (KCHSC) [5]; dosage 1280 g/ha): 90%
Pre-emergence efficacy against LOLRI (Lolium rigidum (LOLRI); dosage 1280 g/ha): 100%
Pre-emergence efficacy against MATIN [6, 18]: 100%
Pre-emergence efficacy against POAAN (Poa annua (POAAN) [7]; dosage 320 g/ha): 100%
Pre-emergence efficacy against POAAN (Poa annua (POAAN) [7]; dosage 1280 g/ha): 100%
Pre-emergence efficacy against SETVI (Setaria viridis (SETVI); dosage 320 g/ha): 100%
Pre-emergence efficacy against SETVI (Setaria viridis (SETVI); dosage 1280 g/ha): 100%
Pre-emergence efficacy against STEME (Stellaria media (STEME) [8]; dosage 1280 g/ha): 100%
Pre-emergence efficacy against VERPE in % (Veronica persica (VERPE) [9]; 320 g/ha): 90%
Pre-emergence efficacy against VERPE in % (Veronica persica (VERPE) [9]; 1280 g/ha): 100%
Pre-emergence efficacy against AMARE in % ([10]; 320 g/ha): 90%
Pre-emergence efficacy against AMARE in % ([10]; 1280 g/ha): 100%
Post-emergence efficacy against ABUTH in % ([11]; 320 g/ha): 100%
Post-emergence efficacy against ABUTH in % ([11]; 1280 g/ha): 100%
Post-emergence efficacy against ECHCG in % [12]: 90%
Post-emergence efficacy against KCHSC (Kochia scoparia (KCHSC) [13]): 100%
Post-emergence efficacy against POAAN (Poa annua (POAAN) [14]): 90%
Post-emergence efficacy against STEME (Stellaria media (STEME) [15]; 80 g/ha): 90%
Post-emergence efficacy against STEME (Stellaria media (STEME) [15]; 320 g/ha): 100%
Post-emergence efficacy against STEME (Stellaria media (STEME) [15]; 1280 g/ha): 100%
Post-emergence efficacy against VERPE (Veronica persica (VERPE) [16]; 80 g/ha): 90%
Post-emergence efficacy against VERPE (Veronica persica (VERPE) [16]; 320 g/ha): 90%
Post-emergence efficacy against VERPE (Veronica persica (VERPE) [16]; 1280 g/ha): 100%
Post-emergence efficacy against AMARE ([17]; 320 g/ha): 90%
Post-emergence efficacy against AMARE ([17]; 1280 g/ha): 100%

O=S(=O)(CCCC(F)(F)F)Oc1c(Br)cccc1Oc1ncc(F)cn1 [Example I-44]
Pre-emergence efficacy against ABUTH [1]: 100%
Pre-emergence efficacy against ALOMY [2]: 100%
Pre-emergence efficacy against DIGSA ([3]; 320 g/ha): 100%
Pre-emergence efficacy against DIGSA ([3]; 1280 g/ha): 100%
Pre-emergence efficacy against ECHCG ([4]; 320 g/ha): 100%
Pre-emergence efficacy against ECHCG ([4]; 1280 g/ha): 100%
Pre-emergence efficacy against KCHSC (Kochia scoparia (KCHSC) [5]; dosage 320 g/ha): 100%
Pre-emergence efficacy against KCHSC (Kochia scoparia (KCHSC) [5]; dosage 1280 g/ha): 100%
Pre-emergence efficacy against LOLRI (Lolium rigidum (LOLRI); dosage 320 g/ha): 100%
Pre-emergence efficacy against LOLRI (Lolium rigidum (LOLRI); dosage 1280 g/ha): 100%
Pre-emergence efficacy against MATIN ([6]; 320 g/ha, scored visually after about 3 weeks vs untreated controls): 90%
Pre-emergence efficacy against MATIN [6, 18]: 100%
Pre-emergence efficacy against POAAN (Poa annua (POAAN) [7]; dosage 320 g/ha): 100%
Pre-emergence efficacy against POAAN (Poa annua (POAAN) [7]; dosage 1280 g/ha): 100%
Pre-emergence efficacy against SETVI (Setaria viridis (SETVI); dosage 320 g/ha): 100%
Pre-emergence efficacy against SETVI (Setaria viridis (SETVI); dosage 1280 g/ha): 100%
Pre-emergence efficacy against STEME (Stellaria media (STEME) [8]; dosage 80 g/ha): 100%
Pre-emergence efficacy against STEME (Stellaria media (STEME) [8]; dosage 320 g/ha): 100%
Pre-emergence efficacy against STEME (Stellaria media (STEME) [8]; dosage 1280 g/ha): 100%
Pre-emergence efficacy against VERPE in % (Veronica persica (VERPE) [9]; 320 g/ha): 100%
Pre-emergence efficacy against VERPE in % (Veronica persica (VERPE) [9]; 1280 g/ha): 100%
Pre-emergence efficacy against AMARE in % ([10]; 80 g/ha): 100%
Pre-emergence efficacy against AMARE in % ([10]; 320 g/ha): 100%
Pre-emergence efficacy against AMARE in % ([10]; 1280 g/ha): 100%
Post-emergence efficacy against ABUTH in % ([11]; 320 g/ha): 90%
Post-emergence efficacy against ABUTH in % ([11]; 1280 g/ha): 100%
Post-emergence efficacy against ECHCG in % [12]: 100%
Post-emergence efficacy against KCHSC in % (Kochia scoparia (KCHSC) [13]; 80 g/ha): 100%
Post-emergence efficacy against KCHSC in % (Kochia scoparia (KCHSC) [13]; 320 g/ha): 100%
Post-emergence efficacy against KCHSC (Kochia scoparia (KCHSC) [13]): 100%
Post-emergence efficacy against STEME (Stellaria media (STEME) [15]; 80 g/ha): 100%
Post-emergence efficacy against STEME (Stellaria media (STEME) [15]; 320 g/ha): 100%
Post-emergence efficacy against STEME (Stellaria media (STEME) [15]; 1280 g/ha): 100%
